# Test results from patent US11214803B2, “Modulators of YAP1 expression” (Ionis Pharmaceuticals, Inc., priority 2019, dated 2022).
# Strand notation (5' to 3'): a small letter for the sugar, then the base; units joined by * are phosphorothioate-linked, units joined directly phosphodiester-linked; [ ] holds rarer units or linkages, { } end groups; capitals alone tell only the bases. k = constrained ethyl (cEt); [5mC] = 5-methylcytosine; d = 2'-deoxy (DNA)
# System: Yap1 mRNA
# Test: Antisense inhibition of human Yap1 in A-431 cells by cEt gapmers, single dose (Example 2, RTS4814)
# Assay type: cell-based
# Method in brief: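 A-431 cells (5,000/well) received 2,000 nM oligonucleotide by free uptake for about 48 h. Yap1 mRNA was then quantified by RT-qPCR with primer probe set RTS4814, normalized to RIBOGREEN total RNA, and reported as % of untreated control; asterisked values mark oligos inside the amplicon.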
# [1] = Table 6, A-431 cells, 5,000 cells per well, free uptake, 2,000 nM modified oligonucleotide, approx. 48 hours, RTS4814, normalized to RIBOGREEN, Yap1 mRNA relative to untreated control cells
# [2] = Table 23, Yap1 mRNA as percent of untreated control, 3-10-3 cEt gapmers, single dose
# [3] = Table 19, A-431 cells, 5,000 cells per well, free uptake, 2,000 nM modified oligonucleotide, approx. 48 hours, RTS4814, normalized to RIBOGREEN, Yap1 mRNA as percent of untreated control
# [4] = Table 24, Yap1 mRNA as percent of untreated control, 3-10-3 cEt gapmers targeting SEQ ID NO.: 1, and 2
# [5] = Yap1 mRNA as percent of untreated control, A-431 cells, 3-10-3 cEt gapmers targeting SEQ ID NO.: 1, and 2, Table 31
# [6] = Table 25, Yap1 mRNA as percent of untreated control, 3-10-3 cEt gapmers targeting SEQ ID NO.: 1, and 2
# [7] = Table 33, Yap1 mRNA, percent of untreated control, 3-10-3 cEt gapmers targeting SEQ ID NO.: 1, and 2
# [8] = Table 32, Yap1 mRNA, percent of untreated control, 3-10-3 cEt gapmers targeting SEQ ID NO.: 1, and 2
# [9] = Table 18, A-431 cells, 5,000 cells per well, free uptake, 2,000 nM modified oligonucleotide, approx. 48 hours, RTS4814, normalized to RIBOGREEN, Yap1 mRNA as percent of untreated control
# [10] = Table 5, A-431 cells, 5,000 cells per well, free uptake, 2,000 nM modified oligonucleotide, approx. 48 hours, RTS4814, normalized to RIBOGREEN, Yap1 mRNA relative to untreated control cells
# [11] = Table 20, Yap1 mRNA, percent of untreated control, 3-10-3 cEt gapmers targeting SEQ ID NO.: 1 and 2
# [12] = Yap1 mRNA as percent of untreated control, A-431 cells, 3-10-3 cEt gapmers targeting SEQ ID NO.: 1, and 2, Table 30
substance,measurement,setting,value
716468 (kT*k[5mC]*kA*dT*d[5mC]*dA*dG*dA*dT*dA*dA*dT*dA*kT*k[5mC]*kT; antisense) [Compound 716468],YAP1 (% UTC),[1],118 % UTC
716507 (antisense kA*k[5mC]*kT*dA*d[5mC]*dT*d[5mC]*dT*dA*dA*dA*dA*d[5mC]*kT*k[5mC]*k[5mC]) [Compound 716507],YAP1 (% UTC),[1],53 % UTC
1075049 (antisense kG*kA*kA*dA*dT*dA*dT*dT*dG*dG*dT*dA*dA*kG*kT*k[5mC]) [Compound 1075049],YAP1 (% UTC),[2],10 % UTC
1076101 (kA*kA*kA*dT*dA*dA*dG*dG*dG*dA*d[5mC]*dT*dA*k[5mC]*kT*kT; antisense) [Compound 1076101],YAP1 (% UTC),[3],71 % UTC
1074665 (antisense kT*kT*kG*d[5mC]*dA*dT*dT*d[5mC]*dT*dA*dG*dG*dT*kA*kG*kA) [Compound 1074665],YAP1 (% UTC),[2],17 % UTC
1074954 (antisense k[5mC]*k[5mC]*kG*dG*dG*dT*dT*dT*dT*dT*dG*dT*d[5mC]*kA*kT*k[5mC]) [Compound 1074954],YAP1 (% UTC),[4],91 % UTC
1074481 (kA*kA*kT*dA*dT*dG*dG*dT*d[5mC]*dA*dT*dT*dT*kG*k[5mC]*k[5mC]; antisense) [compound 1074481],YAP1 (% UTC),[5],14 % UTC
1076010 (kT*kA*kT*dA*dA*dA*d[5mC]*dA*dA*dT*dA*dG*d[5mC]*kG*kA*kA; antisense) [Compound 1076010],YAP1 (% UTC),[4],44 % UTC
1075307 (kA*kT*kT*dA*dA*dA*d[5mC]*dG*dA*dA*dA*d[5mC]*dA*k[5mC]*kG*kG; antisense) [Compound 1075307],YAP1 (% UTC),[6],28 % UTC
1074867 (kT*kA*kA*d[5mC]*dA*dT*dA*dT*dG*dA*dG*d[5mC]*dA*kT*kG*k[5mC]; antisense) [compound 1074867],YAP1 (% UTC),[7],40 % UTC
1076498 (kT*kT*kA*d[5mC]*dA*dA*dT*dA*d[5mC]*d[5mC]*dT*dT*dA*kT*kG*kA; antisense) [compound 1076498],YAP1 (% UTC),[8],70 % UTC
1076388 (kG*kA*kA*dA*dT*dA*dT*dT*d[5mC]*dG*dA*dG*dA*kA*kG*kA; antisense) [Compound 1076388],YAP1 (% UTC),[9],6 % UTC
716420 (k[5mC]*kA*kA*d[5mC]*dT*dG*dG*d[5mC]*dT*dT*dA*dT*dG*kG*kA*kA; antisense) [Compound 716420],YAP1 (% UTC),[1],50 % UTC
1076299 (k[5mC]*kG*kT*dT*dA*dT*dA*dA*dA*dG*dA*d[5mC]*d[5mC]*k[5mC]*kA*kA; antisense) [Compound 1076299],YAP1 (% UTC),[6],3 % UTC
716551 (k[5mC]*kG*k[5mC]*dT*dA*dG*dA*dA*dA*dA*dG*dT*dG*kT*kT*kA; antisense) [Compound 716551],YAP1 (% UTC),[10],76 % UTC
716497 (kA*kG*k[5mC]*dA*dG*d[5mC]*dT*dT*dT*dT*dG*d[5mC]*d[5mC]*kA*kG*kG; antisense) [Compound 716497],YAP1 (% UTC),[10],65 % UTC
716571 (kG*k[5mC]*kT*dG*dA*dA*dG*d[5mC]*d[5mC]*dG*dA*dG*dT*kT*k[5mC]*kA) [Compound 716571],YAP1 (% UTC),"Table 7 (gapmers targeting SEQ ID NO: 3 and 4), A-431 cells, free uptake, 2,000 nM, approximately 48 hours, RTS4814",91 % UTC
1075366 (kA*k[5mC]*kA*d[5mC]*dG*dA*dA*dA*dA*dT*dA*dG*dT*kT*k[5mC]*kT; antisense) [Compound 1075366],YAP1 (% UTC),[11],27 % UTC
1076165 (k[5mC]*k[5mC]*k[5mC]*d[5mC]*dA*dA*dG*dG*dA*d[5mC]*dT*dT*dG*k[5mC]*k[5mC]*kA; antisense) [Compound 1076165],YAP1 (% UTC),[3],79 % UTC
1076529 (k[5mC]*kT*kA*dT*dA*dA*dT*dG*dA*dG*dG*dA*dT*kT*kA*k[5mC]; antisense) [compound 1076529],YAP1 (% UTC),[5],108 % UTC
1074185 (antisense kG*kG*k[5mC]*d[5mC]*dG*dG*dT*dT*dG*dA*dG*dG*d[5mC]*kG*kG*k[5mC]) [Compound 1074185],YAP1 (% UTC),[2],91 % UTC
1074854 (antisense kA*k[5mC]*kA*dA*dT*dT*dG*dT*dT*dA*dT*dG*dA*kT*kA*kG) [Compound 1074854],YAP1 (% UTC),[11],23 % UTC
1074384 (kT*kT*k[5mC]*dA*dA*dG*dG*dT*dA*dG*dT*d[5mC]*dT*kG*kG*kG; antisense) [compound 1074384],YAP1 (% UTC),[12],35 % UTC
716491 (k[5mC]*kT*kG*dG*dT*dG*d[5mC]*d[5mC]*dA*d[5mC]*dT*dT*dT*kA*kA*kT; antisense) [Compound 716491],YAP1 (% UTC),[10],54 % UTC
1076041 (kG*kT*kT*dA*dA*dA*dG*dA*dG*dT*dG*dG*dA*kA*kA*kT; antisense) [Compound 1076041],YAP1 (% UTC),[2],47 % UTC
1076243 (kA*kT*kA*dT*dT*d[5mC]*dG*dA*dT*dG*dT*dA*dA*k[5mC]*kT*kT; antisense) [compound 1076243],YAP1 (% UTC),[7],41 % UTC
1074982 (antisense kA*k[5mC]*k[5mC]*dT*dT*dT*dT*dA*dT*dT*dG*d[5mC]*d[5mC]*kA*kG*kT) [Compound 1074982],YAP1 (% UTC),[11],13 % UTC
1075173 (antisense k[5mC]*kT*kT*dT*dA*dG*dG*dG*d[5mC]*dA*dA*d[5mC]*dT*kG*kT*kA) [Compound 1075173],YAP1 (% UTC),[3],22 % UTC
1074289 (antisense kT*kG*kA*d[5mC]*dT*dG*dA*dT*dT*d[5mC]*dT*d[5mC]*dT*kG*kG*kT) [compound 1074289],YAP1 (% UTC),[5],13 % UTC
716539 (antisense kA*kA*kT*dA*dG*dT*dG*d[5mC]*dT*dT*dT*dG*dG*kA*kA*kG) [Compound 716539],YAP1 (% UTC),[10],59 % UTC
1075568 (kT*kT*kA*dT*dT*dT*dA*dA*dG*dT*dT*dG*dG*kG*kA*kG; antisense) [compound 1075568],YAP1 (% UTC),[12],23 % UTC
716579 (kA*kT*kA*dG*dA*dG*dA*dT*dT*dT*dT*d[5mC]*d[5mC]*k[5mC]*kT*k[5mC]; antisense) [Compound 716579],YAP1 (% UTC),[1],84 % UTC
1075506 (k[5mC]*kA*kT*dA*dA*dA*dG*dG*dT*dG*dA*d[5mC]*dA*kG*k[5mC]*k[5mC]; antisense) [compound 1075506],YAP1 (% UTC),[8],66 % UTC
1074353 (antisense kG*kA*k[5mC]*dA*d[5mC]*dT*dG*dT*dA*dG*d[5mC]*dT*dG*k[5mC]*kT*k[5mC]) [compound 1074353],YAP1 (% UTC),[5],17 % UTC
1075368 (kG*kA*kG*dA*dA*dT*dA*dA*dG*d[5mC]*dA*dA*dT*k[5mC]*kA*kG; antisense) [Compound 1075368],YAP1 (% UTC),"Table 22, Yap1 mRNA as percent of untreated control, 3-10-3 cEt gapmers, single dose",24 % UTC
1075722 (kG*kT*kT*dA*dA*dA*dT*dA*d[5mC]*d[5mC]*dT*dT*d[5mC]*kT*kA*kG; antisense) [Compound 1075722],YAP1 (% UTC),[4],88 % UTC
716429 (kT*kG*kG*d[5mC]*dA*dT*d[5mC]*d[5mC]*dA*dT*d[5mC]*dA*dT*k[5mC]*k[5mC]*kA; antisense) [Compound 716429],YAP1 (% UTC),[1],28 % UTC
716395 (kG*k[5mC]*k[5mC]*dG*d[5mC]*dA*dG*d[5mC]*d[5mC]*dT*d[5mC]*dT*d[5mC]*k[5mC]*kT*kT; antisense) [Compound 716395],YAP1 (% UTC),[10],92 % UTC
1075556 (kT*kG*kG*d[5mC]*dA*dA*dA*dA*dG*dA*dG*dT*dG*kG*kT*kG; antisense) [Compound 1075556],YAP1 (% UTC),[9],68 % UTC
716368 (kG*kT*k[5mC]*dG*dG*dG*d[5mC]*dA*dG*d[5mC]*dT*dT*d[5mC]*k[5mC]*kG*kG; antisense) [Compound 716368],YAP1 (% UTC),[10],86 % UTC
1076016 (kT*kA*kA*dT*dA*dG*dG*dA*dT*dG*dG*dA*dT*kT*k[5mC]*kT; antisense) [compound 1076016],YAP1 (% UTC),[12],8 % UTC
1075145 (antisense kT*k[5mC]*k[5mC]*d[5mC]*dA*dA*dA*dA*dG*dG*dA*dG*dT*kA*kG*k[5mC]) [Compound 1075145],YAP1 (% UTC),[2],58 % UTC
1074865 (kA*k[5mC]*kA*dT*dA*dT*dG*dA*dG*d[5mC]*dA*dT*dG*k[5mC]*kT*k[5mC]; antisense) [compound 1074865],YAP1 (% UTC),[5],46 % UTC
1074256 (antisense k[5mC]*kA*k[5mC]*dT*dG*dG*dT*dG*dG*dA*d[5mC]*dT*dG*kG*kT*kG) [compound 1074256],YAP1 (% UTC),[12],64 % UTC
1076240 (kA*kT*kT*dA*dA*dA*dA*dG*d[5mC]*dA*dA*dG*dG*kT*kG*k[5mC]; antisense) [compound 1076240],YAP1 (% UTC),[12],56 % UTC
1075589 (kA*kA*kT*dT*dA*dG*d[5mC]*dA*dG*dG*dG*d[5mC]*dA*kG*kA*k[5mC]; antisense) [Compound 1075589],YAP1 (% UTC),[3],84 % UTC
